Reference: US20260207602A1, “EGFR INHIBITORS” (Blueprint Medicines Corporation, priority 2022, published 2026)

Assays:
EGFR L858R = molecular target: T1, EGFR L858R (Homo sapiens, UniProt P00533, L858R); experiment: Biochemical EGFR inhibition assay (Caliper mobility shift), EGFR L858R; details: biochemical Caliper mobility shift assay, EGFR L858R enzyme; read-out: Enz EGFR L858R IC50
T1 construct: purchased SignalChem E10-122BG
In short: (§1)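 Recombinant mutant enzyme, 2.5 µM fluorescent peptide, ATP at 1.0 mM or Km, 1.0% DMSO, 25 °C. Stopped with EDTA once 10–20% of peptide was phosphorylated; apparent IC50 derived from electrophoretic product/substrate separation.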

EGFR (d746-750) = molecular target: T2, EGFR (d746-750) (Homo sapiens, UniProt P00533, DEL746-750); experiment: Biochemical EGFR inhibition assay (Caliper mobility shift), EGFR (d746-750); details: biochemical Caliper mobility shift assay, EGFR Exon 19-del enzyme; read-out: Enz EGFR Exon 19-del IC50
T2 construct: purchased SignalChem E10-122JG
In short: as §1

[1] = molecular target: intracellular phosphorylation of EGFR (Tyr1068) in PC-9 cells (Homo sapiens, UniProt P00533, DEL746-750); experiment: PC-9 pEGFR AlphaLISA assay; format: cell-based; details: 4 hours incubation, read-out: Phos EGFR PC9 IC50
In short: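 PC-9 cells (EGFR del746-750) in phenol-free DMEM/10% FBS, adhered overnight, then exposed to 10-point 4-fold compound dilutions for 4 h at 37 °C. Lysates assayed for pEGFR Tyr1068 by AlphaLISA SureFire Ultra; IC50 from percent pEGFR inhibition vs log concentration.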

Chain of intracellular phosphorylation of EGFR (Tyr1068) in PC-9 cells (P00533 with tags, fused parts or gaps DEL746-750): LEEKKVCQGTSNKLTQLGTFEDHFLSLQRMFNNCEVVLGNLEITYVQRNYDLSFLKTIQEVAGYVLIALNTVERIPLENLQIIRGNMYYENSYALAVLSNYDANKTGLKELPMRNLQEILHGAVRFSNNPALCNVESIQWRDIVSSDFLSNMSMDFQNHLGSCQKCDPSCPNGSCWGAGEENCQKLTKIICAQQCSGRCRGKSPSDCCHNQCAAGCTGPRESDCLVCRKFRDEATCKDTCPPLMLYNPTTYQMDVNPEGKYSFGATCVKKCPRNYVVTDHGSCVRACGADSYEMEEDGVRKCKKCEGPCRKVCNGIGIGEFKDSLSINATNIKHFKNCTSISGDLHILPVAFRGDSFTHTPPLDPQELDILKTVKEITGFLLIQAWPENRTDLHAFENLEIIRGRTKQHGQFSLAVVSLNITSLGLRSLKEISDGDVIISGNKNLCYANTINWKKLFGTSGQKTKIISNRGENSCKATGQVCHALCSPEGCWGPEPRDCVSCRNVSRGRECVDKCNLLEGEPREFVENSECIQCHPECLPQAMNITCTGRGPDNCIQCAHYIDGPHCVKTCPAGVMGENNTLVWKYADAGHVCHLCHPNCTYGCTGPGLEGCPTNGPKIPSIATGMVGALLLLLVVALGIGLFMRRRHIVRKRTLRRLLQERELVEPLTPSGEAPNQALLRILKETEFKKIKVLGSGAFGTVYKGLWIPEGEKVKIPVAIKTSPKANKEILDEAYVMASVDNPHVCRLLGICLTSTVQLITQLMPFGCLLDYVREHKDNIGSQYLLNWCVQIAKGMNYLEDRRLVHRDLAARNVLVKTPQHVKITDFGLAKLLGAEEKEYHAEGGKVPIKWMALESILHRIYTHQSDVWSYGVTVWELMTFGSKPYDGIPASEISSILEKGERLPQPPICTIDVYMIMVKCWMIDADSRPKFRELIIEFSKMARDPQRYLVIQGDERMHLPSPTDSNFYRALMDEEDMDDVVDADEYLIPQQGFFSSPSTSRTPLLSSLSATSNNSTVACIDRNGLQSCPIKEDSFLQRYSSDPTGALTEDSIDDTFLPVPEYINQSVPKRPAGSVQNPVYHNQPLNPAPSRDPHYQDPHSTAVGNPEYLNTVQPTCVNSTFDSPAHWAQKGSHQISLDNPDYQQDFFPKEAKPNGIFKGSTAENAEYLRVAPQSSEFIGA
T1 sequence (P00533 25-1210 L858R): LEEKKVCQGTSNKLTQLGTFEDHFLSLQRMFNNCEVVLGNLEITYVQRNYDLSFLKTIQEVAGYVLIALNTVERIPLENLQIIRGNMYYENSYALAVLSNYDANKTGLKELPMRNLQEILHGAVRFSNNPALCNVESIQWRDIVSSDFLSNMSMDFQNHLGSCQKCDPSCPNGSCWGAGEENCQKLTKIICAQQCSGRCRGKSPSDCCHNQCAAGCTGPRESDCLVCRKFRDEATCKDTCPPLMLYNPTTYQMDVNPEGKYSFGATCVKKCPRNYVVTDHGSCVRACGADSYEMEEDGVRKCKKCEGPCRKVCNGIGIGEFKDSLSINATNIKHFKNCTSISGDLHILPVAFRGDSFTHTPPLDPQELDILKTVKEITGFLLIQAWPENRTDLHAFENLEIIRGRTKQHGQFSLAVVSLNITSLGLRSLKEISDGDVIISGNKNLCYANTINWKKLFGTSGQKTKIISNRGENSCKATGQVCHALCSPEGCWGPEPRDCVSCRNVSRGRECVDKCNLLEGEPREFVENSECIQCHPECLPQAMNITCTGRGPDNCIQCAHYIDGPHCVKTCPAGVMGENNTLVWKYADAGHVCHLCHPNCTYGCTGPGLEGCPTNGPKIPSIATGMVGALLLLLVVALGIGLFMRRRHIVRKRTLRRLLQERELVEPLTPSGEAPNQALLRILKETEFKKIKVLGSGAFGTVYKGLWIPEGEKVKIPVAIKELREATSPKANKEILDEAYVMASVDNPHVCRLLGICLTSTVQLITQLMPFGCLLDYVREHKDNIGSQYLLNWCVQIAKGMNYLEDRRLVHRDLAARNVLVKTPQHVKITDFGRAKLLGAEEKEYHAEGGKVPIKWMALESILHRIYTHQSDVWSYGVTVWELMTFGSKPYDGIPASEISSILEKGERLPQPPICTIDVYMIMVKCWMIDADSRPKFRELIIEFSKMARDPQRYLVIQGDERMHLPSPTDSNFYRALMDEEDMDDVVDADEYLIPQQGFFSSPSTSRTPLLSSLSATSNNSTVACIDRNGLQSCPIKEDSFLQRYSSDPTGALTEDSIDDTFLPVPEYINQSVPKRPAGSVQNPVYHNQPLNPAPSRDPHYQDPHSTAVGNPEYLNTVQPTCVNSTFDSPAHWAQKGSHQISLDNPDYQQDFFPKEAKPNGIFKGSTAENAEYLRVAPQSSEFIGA
T2 sequence (P00533 with tags, fused parts or gaps DEL746-750 limits assumed): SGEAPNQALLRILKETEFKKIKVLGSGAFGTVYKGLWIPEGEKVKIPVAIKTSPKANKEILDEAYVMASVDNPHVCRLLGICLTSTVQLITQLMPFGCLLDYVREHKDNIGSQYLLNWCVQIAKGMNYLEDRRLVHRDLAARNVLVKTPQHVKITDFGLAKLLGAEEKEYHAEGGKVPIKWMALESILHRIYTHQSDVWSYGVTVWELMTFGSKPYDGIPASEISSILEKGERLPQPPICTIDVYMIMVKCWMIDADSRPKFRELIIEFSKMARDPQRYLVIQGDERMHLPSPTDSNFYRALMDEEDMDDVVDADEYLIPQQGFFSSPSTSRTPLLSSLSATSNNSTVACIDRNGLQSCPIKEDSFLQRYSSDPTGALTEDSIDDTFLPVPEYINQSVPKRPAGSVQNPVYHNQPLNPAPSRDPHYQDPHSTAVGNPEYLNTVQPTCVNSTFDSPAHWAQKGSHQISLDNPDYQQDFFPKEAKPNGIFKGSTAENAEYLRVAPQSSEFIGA

Structure (SMILES)	IC50 (EGFR L858R) [nM]	IC50 (EGFR (d746-750)) [nM]	IC50 [1] [nM]
C[C@@H]1CN(C)CCN1c1cc(O[C@H](C)C2COC2)c2c(Nc3ccc4ncsc4c3F)ncnc2c1 (single isomer, unassigned) [Example 106, N-(7-((R)-2,4-dimethylpiperazin-1-yl)-5-((R)-1-(oxetan-3-yl)ethoxy)quinazolin-4-yl)-7-fluorobenzo[d]thiazol-6-amine or N-(7-((R)-2,4-dimethylpiperazin-1-yl)-5-((S)-1-(oxetan-3-yl)ethoxy)quinazolin-4-yl)-7-fluorobenzo[d]thiazol-6-amine]	≤ 10	≤ 10	10.1 to 50
C[C@@H]1CN(C)CCN1c1cc(O[C@H](C)C2COC2)c2c(Nc3ccc4ncsc4c3F)ncnc2c1 (single isomer, unassigned) [Example 107, N-(7-((R)-2,4-dimethylpiperazin-1-yl)-5-((R)-1-(oxetan-3-yl)ethoxy)quinazolin-4-yl)-7-fluorobenzo[d]thiazol-6-amine or N-(7-((R)-2,4-dimethylpiperazin-1-yl)-5-((S)-1-(oxetan-3-yl)ethoxy)quinazolin-4-yl)-7-fluorobenzo[d]thiazol-6-amine]	10.1 to 50	≤ 10	10.1 to 50
COCC[C@@H](C)Oc1cc(-c2cnn(C)c2)cc2ncnc(Nc3ccc4ncsc4c3F)c12 (single isomer, unassigned) [Example 108]	≤ 10	≤ 10	≤ 10
C[C@@H](Oc1cc(-c2cnn(C)c2)cc2ncnc(Nc3ccc4ncsc4c3F)c12)C1CCOCC1 (single isomer, unassigned) [Example 110]	≤ 10	≤ 10	10.1 to 50
C[C@@H](Oc1cc(-c2cnn(C)c2)cc2ncnc(Nc3ccc4ncsc4c3F)c12)C1CCOCC1 (single isomer, unassigned) [Example 111]	≤ 10	≤ 10	≤ 10
C[C@@H](CN(C)C)Oc1cc(N2CCN(C)CC2)cc2ncnc(Nc3ccc4ncsc4c3)c12 (single isomer, unassigned) [Example 116]	> 50.1	10.1 to 50	> 50.1
C[C@@H](CN(C)C)Oc1cc(N2CCN(C)CC2)cc2ncnc(Nc3ccc4ncsc4c3)c12 (single isomer, unassigned) [Example 117]	10.1 to 50	10.1 to 50	10.1 to 50
COC[C@H](C)Oc1cc(N2CCN(C(C)C)C2=O)cc2ncnc(Nc3ccc4ncsc4c3)c12 (single isomer, unassigned) [Example 118]	≤ 10	≤ 10	≤ 10
COc1cn(C)nc1-c1cc(O[C@H](C)C2COC2)c2c(Nc3ccc4ncsc4c3)ncnc2c1 (single isomer, unassigned) [Example 120]	≤ 10	≤ 10	≤ 10

Now from value to compound:

IC50 (EGFR L858R) [nM]	IC50 (EGFR (d746-750)) [nM]	IC50 [1] [nM]	Structure (SMILES)
≤ 10	≤ 10	10.1 to 50	COc1cn(C)nc1-c1cc(O[C@H](C)C2COC2)c2c(Nc3ccc4ncsc4c3)ncnc2c1 (single isomer, unassigned) [Example 121]
≤ 10	≤ 10	≤ 10	CC(Oc1cc(-c2cn[nH]c2)cc2ncnc(Nc3ccc4ncsc4c3)c12)C1COC1 (single isomer, unassigned) [Example 122]
≤ 10	≤ 10	≤ 10	C[C@@H](Oc1cc(-c2cnn(CC(C)(C)O)c2)cc2ncnc(Nc3ccc4ncsc4c3)c12)C1COC1 (single isomer, unassigned) [Example 127]
≤ 10	≤ 10	≤ 10	C[C@H]([C@@H](C)Oc1cc(-c2cnn(C)c2)cc2ncnc(Nc3ccc4ncsc4c3)c12)N(C)C (single isomer, unassigned) [Example 143]
10.1 to 50	≤ 10	10.1 to 50	C[C@@H](Oc1cc(-c2cnn(C)c2)cc2ncnc(Nc3ccc4ncsc4c3)c12)[C@H](C)N(C)C (single isomer, unassigned) [Example 144]
